Results reported in ChEMBL document CHEMBL1201862, “PubChem BioAssay data set” (2004).
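Exposure lasted 48 hours, with cells grown in 96-well plates and compounds tested at five concentrations. Here, GI50 denotes the concentration required for 50% inhibition of growth.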 Active and inactive are the calls of the source. No stated cut-off is given here; in the data, active = GI50 up to about 1.1 µM and inactive = higher.

Tests used:
Assay in all cases: NCI-60 cell line screen, 48 h
HL-60 = system: HL-60
786-0 = system: 786-0
CCRF-CEM = system: CCRF-CEM
NCI-H460 = system: NCI-H460
MDA-MB-435 = system: MDA-MB-435
SF-268 = system: SF-268
SK-MEL-28 = system: SK-MEL-28
K562 = system: K562
T47D = system: T47D
BT-549 = system: BT-549
MCF7 = system: MCF7
NCI/ADR-RES = system: NCI/ADR-RES
UACC-62 = system: UACC-62
SF-539 = system: SF-539
SW-620 = system: SW-620
HOP-62 = system: HOP-62
HCC 2998 = system: HCC 2998
NCI-H226 = system: NCI-H226
OVCAR-5 = system: OVCAR-5
CAKI-1 = system: CAKI-1
SR = system: SR
RXF 393 = system: RXF 393
IGROV-1 = system: IGROV-1
HOP-92 = system: HOP-92
SN12C = system: SN12C
ACHN = system: ACHN
HT-29 = system: HT-29
SNB-75 = system: SNB-75
NCI-H522 = system: NCI-H522
M14 = system: M14
HCT-116 = system: HCT-116
HCT-15 = system: HCT-15
OVCAR-3 = system: OVCAR-3
OVCAR-8 = system: OVCAR-8
SF-295 = system: SF-295
EKVX = system: EKVX
UACC-257 = system: UACC-257
OVCAR-4 = system: OVCAR-4
PC-3 = system: PC-3
SK-MEL-2 = system: SK-MEL-2
RPMI-8226 = system: RPMI-8226
A549 = system: A549
MOLT-4 = system: MOLT-4
UO-31 = system: UO-31
SK-MEL-5 = system: SK-MEL-5
COLO 205 = system: COLO 205
SK-OV-3 = system: SK-OV-3
DU-145 = system: DU-145
NCI-H23 = system: NCI-H23
A498 = system: A498
LOX IMVI = system: LOX IMVI
Malme-3M = system: Malme-3M
MDA-N = system: MDA-N
SNB-19 = system: SNB-19
TK-10 = system: TK-10
KM12 = system: KM12
MDA-MB-231 = system: MDA-MB-231
U-251 = system: U-251

Measured: GI50

O=C(/C=C/c1ccccc1)NNC(=O)c1c(Cl)c(Cl)c(Cl)c(Cl)c1-c1nc2ccccc2[nH]1
inactive: HL-60 20.3 µM | 786-0 4.5 µM | CCRF-CEM 27 µM | NCI-H460 23.7 µM | MDA-MB-435 15.7 µM | SF-268 51.8 µM | SK-MEL-28 39.5 µM | K562 25.2 µM | T47D 18.4 µM | BT-549 28.2 µM | MCF7 24.2 µM | NCI/ADR-RES 23.2 µM | UACC-62 15.7 µM | SF-539 22.3 µM | SW-620 33.3 µM | HCC 2998 21.7 µM | NCI-H226 13.9 µM | OVCAR-5 25 µM | CAKI-1 33.3 µM | SR 12.9 µM | RXF 393 18.8 µM | IGROV-1 6.49 µM | HOP-92 18.7 µM | SN12C 21.6 µM | ACHN 32.5 µM | HT-29 32.8 µM | SNB-75 18.2 µM | NCI-H522 24.6 µM | M14 25.8 µM | HCT-116 22.1 µM | OVCAR-3 28.4 µM | OVCAR-8 32 µM | EKVX 17.6 µM | UACC-257 27.7 µM | OVCAR-4 49.4 µM | PC-3 32.5 µM | SK-MEL-2 39.4 µM | RPMI-8226 26.9 µM | MOLT-4 32.4 µM | UO-31 19.5 µM | SK-MEL-5 22 µM | COLO 205 18 µM | DU-145 28.6 µM | NCI-H23 23.2 µM | A498 29.6 µM | LOX IMVI 27.1 µM | Malme-3M 26.5 µM | MDA-N 11.3 µM
active: HOP-62 0.0442 µM | SF-295 0.0472 µM | A549 0.0966 µM | SK-OV-3 0.0453 µM
24 µM: HCT-15

CCCCOC(C)(C)/C=C/C(O)[C@](C)(O)[C@H]1[C@H](O)C[C@@]2(C)[C@@H]3CCc4c(cc(OC5OC(CO)C(O)C(O)C5O)c(O)c4C)C3(C)C(=O)C[C@]12C (some centres undefined)
inactive: SNB-19 > 100 µM | 786-0 > 100 µM | CCRF-CEM > 100 µM | NCI-H460 > 100 µM | MDA-MB-435 > 100 µM | SF-268 > 100 µM | SK-MEL-28 > 100 µM | K562 > 100 µM | T47D > 100 µM | BT-549 > 100 µM | MCF7 > 100 µM | NCI/ADR-RES > 100 µM | UACC-62 > 100 µM | SF-539 > 100 µM | SW-620 > 100 µM | HOP-62 > 100 µM | TK-10 > 100 µM | HCC 2998 > 100 µM | NCI-H226 > 100 µM | OVCAR-5 > 100 µM | CAKI-1 > 100 µM | KM12 > 100 µM | SR > 100 µM | RXF 393 > 100 µM | IGROV-1 > 100 µM | HOP-92 > 100 µM | SN12C > 100 µM | ACHN > 100 µM | HT-29 > 100 µM | SNB-75 > 100 µM | NCI-H522 > 100 µM | M14 > 100 µM | HCT-116 > 100 µM | OVCAR-3 > 100 µM | OVCAR-8 > 100 µM | SF-295 > 100 µM | EKVX > 100 µM | UACC-257 > 100 µM | MDA-MB-231 > 100 µM | OVCAR-4 > 100 µM | PC-3 > 100 µM | SK-MEL-2 > 100 µM | A549 > 100 µM | MOLT-4 > 100 µM | UO-31 > 100 µM | SK-MEL-5 > 100 µM | COLO 205 > 100 µM | SK-OV-3 > 100 µM | DU-145 > 100 µM | U-251 > 100 µM | NCI-H23 > 100 µM | A498 > 100 µM | LOX IMVI > 100 µM | Malme-3M > 100 µM | MDA-N > 100 µM
> 100 µM: HCT-15
